# Assay results reported in ChEMBL document CHEMBL3797029, “Purinylpyridinylamino-based DFG-in/αC-helix-out B-Raf inhibitors: Applying mutant versus wild-type B-Raf selectivity indices for compound profiling” (Bioorg Med Chem, 2016).
# What was measured:
# [1] = molecular target: Serine/threonine-protein kinase Nek6 (Homo sapiens) (UniProt Q9HC98); assay: Inhibition of full length wild type human NEK6 expressed in bacterial system assessed as enzyme activity at 1 uM relative to control; design: scale not given: the % may be the effect or the level left
# [2] = molecular target: Hepatocyte growth factor receptor (Homo sapiens) (UniProt P08581); assay: Inhibition of partial length wild type human MET expressed in bacterial system assessed as enzyme activity at 1 uM relative to control; design: scale not given: the % may be the effect or the level left
# [3] = molecular target: Angiopoietin-1 receptor (Homo sapiens) (UniProt Q02763); assay: Inhibition of partial length wild type human TIE2 expressed in bacterial system assessed as enzyme activity at 1 uM relative to control; design: scale not given: the % may be the effect or the level left
# [4] = molecular target: Mitogen-activated protein kinase 12 (Homo sapiens) (UniProt P53778); assay: Inhibition of full length wild type human p38gamma expressed in bacterial system assessed as enzyme activity at 1 uM relative to control; design: scale not given: the % may be the effect or the level left
# [5] = molecular target: Tyrosine-protein kinase ABL1 (Homo sapiens) (UniProt P00519); assay: Inhibition of partial length wild type phosphorylated human ABL1 expressed in mammalian system assessed as enzyme activity at 1 uM relative to control; design: scale not given: the % may be the effect or the level left
# [6] = molecular target: Interleukin-1 receptor-associated kinase 4 (Homo sapiens) (UniProt Q9NWZ3); assay: Inhibition of partial length wild type human IRAK4 expressed in mammalian system assessed as enzyme activity at 1 uM relative to control; design: scale not given: the % may be the effect or the level left
# [7] = molecular target: Interferon-induced, double-stranded RNA-activated protein kinase (Homo sapiens) (UniProt P19525); assay: Inhibition of partial length wild type human PRKR expressed in bacterial system assessed as enzyme activity at 1 uM relative to control; design: scale not given: the % may be the effect or the level left
# [8] = molecular target: Non-receptor tyrosine-protein kinase TYK2 (Homo sapiens) (UniProt P29597); assay: Inhibition of partial length wild type human TYK2 (catalytic JH1 domain) expressed in mammalian system assessed as enzyme activity at 1 uM relative to control; design: scale not given: the % may be the effect or the level left
# [9] = molecular target: Serine/threonine-protein kinase B-raf (Homo sapiens, UniProt P15056, V600E); assay: Inhibition of B-Raf V600E mutant (unknown origin) assessed as MEK1 phosphorylation using MEK1-Avitag as substrate after 1 hr by HTRF assay
# [10] = molecular target: Dual specificity tyrosine-phosphorylation-regulated kinase 1B (Homo sapiens) (UniProt Q9Y463); assay: Inhibition of partial length wild type human DYRK1B expressed in bacterial system assessed as enzyme activity at 1 uM relative to control; design: scale not given: the % may be the effect or the level left
# [11] = molecular target: MAP/microtubule affinity-regulating kinase 3 (Homo sapiens) (UniProt P27448); assay: Inhibition of full length wild type human MARK3 expressed in bacterial system assessed as enzyme activity at 1 uM relative to control; design: scale not given: the % may be the effect or the level left
# [12] = molecular target: ALK tyrosine kinase receptor (Homo sapiens) (UniProt Q9UM73); assay: Inhibition of partial length wild type human ALK expressed in mammalian system assessed as enzyme activity at 1 uM relative to control; design: scale not given: the % may be the effect or the level left
# [13] = molecular target: Cyclin-dependent kinase 8 (Homo sapiens) (UniProt P49336); assay: Inhibition of partial length wild type human CDK8 expressed in bacterial system assessed as enzyme activity at 1 uM relative to control; design: scale not given: the % may be the effect or the level left
# [14] = molecular target: Dual specificity protein kinase CLK4 (Homo sapiens) (UniProt Q9HAZ1); assay: Inhibition of partial length wild type human CLK4 expressed in bacterial system assessed as enzyme activity at 1 uM relative to control; design: scale not given: the % may be the effect or the level left
# [15] = molecular target: Mitogen-activated protein kinase 10 (Homo sapiens) (UniProt P53779); assay: Inhibition of partial length wild type human JNK3 expressed in mammalian system assessed as enzyme activity at 1 uM relative to control; design: scale not given: the % may be the effect or the level left
# [16] = molecular target: Serine/threonine-protein kinase pim-1 (Homo sapiens) (UniProt P11309); assay: Inhibition of partial length wild type human PIM1 expressed in bacterial system assessed as enzyme activity at 1 uM relative to control; design: scale not given: the % may be the effect or the level left
# [17] = molecular target: Ephrin type-A receptor 2 (Homo sapiens) (UniProt P29317); assay: Inhibition of partial length wild type human EPHA2 expressed in bacterial system assessed as enzyme activity at 1 uM relative to control; design: scale not given: the % may be the effect or the level left
# [18] = molecular target: High affinity nerve growth factor receptor (Homo sapiens) (UniProt P04629); assay: Inhibition of partial length wild type human TRKA expressed in mammalian system assessed as enzyme activity at 1 uM relative to control; design: scale not given: the % may be the effect or the level left
# [19] = molecular target: Casein kinase I isoform gamma-2 (Homo sapiens) (UniProt P78368); assay: Inhibition of full length wild type human CSNK1G2 expressed in bacterial system assessed as enzyme activity at 1 uM relative to control; design: scale not given: the % may be the effect or the level left
# [20] = molecular target: Phosphatidylinositol 4,5-bisphosphate 3-kinase catalytic subunit delta isoform (Homo sapiens) (UniProt O00329); assay: Inhibition of partial length wild type human PIK3CD expressed in mammalian system assessed as enzyme activity at 1 uM relative to control; design: scale not given: the % may be the effect or the level left
# [21] = molecular target: cGMP-dependent protein kinase 1 (Homo sapiens) (UniProt Q13976); assay: Inhibition of partial length wild type human PRKG1 expressed in bacterial system assessed as enzyme activity at 1 uM relative to control; design: scale not given: the % may be the effect or the level left
# [22] = molecular target: 5'-AMP-activated protein kinase catalytic subunit alpha-1 (Homo sapiens) (UniProt Q13131); assay: Inhibition of partial length wild type human AMPKalpha1 expressed in bacterial system assessed as enzyme activity at 1 uM relative to control; design: scale not given: the % may be the effect or the level left
# [23] = molecular target: Serine/threonine-protein kinase mTOR (Homo sapiens) (UniProt P42345); assay: Inhibition of partial length wild type human MTOR expressed in mammalian system assessed as enzyme activity at 1 uM relative to control; design: scale not given: the % may be the effect or the level left
# [24] = molecular target: Serine/threonine-protein kinase PAK 2 (Homo sapiens) (UniProt Q13177); assay: Inhibition of partial length wild type human PAK2 expressed in bacterial system assessed as enzyme activity at 1 uM relative to control; design: scale not given: the % may be the effect or the level left
# [25] = molecular target: Serine/threonine-protein kinase/endoribonuclease IRE1 (Homo sapiens) (UniProt O75460); assay: Inhibition of partial length wild type human ERN1 expressed in mammalian system assessed as enzyme activity at 1 uM relative to control; design: scale not given: the % may be the effect or the level left
# [26] = molecular target: Epidermal growth factor receptor (Homo sapiens) (UniProt P00533); assay: Inhibition of partial length wild type human EGFR expressed in bacterial system assessed as enzyme activity at 1 uM relative to control; design: scale not given: the % may be the effect or the level left
# [27] = molecular target: Mitogen-activated protein kinase 1 (Homo sapiens) (UniProt P28482); assay: Inhibition of full length wild type human ERK2 expressed in bacterial system assessed as enzyme activity at 1 uM relative to control; design: scale not given: the % may be the effect or the level left
# [28] = molecular target: Tyrosine-protein kinase ABL1 (Homo sapiens) (UniProt P00519); assay: Inhibition of partial length wild type nonphosphorylated human ABL1 expressed in mammalian system assessed as enzyme activity at 1 uM relative to control; design: scale not given: the % may be the effect or the level left
# [29] = molecular target: Serine/threonine-protein kinase B-raf (Homo sapiens, UniProt P15056); assay: Inhibition of wild type B-Raf in human MIAPaCa2 cells assessed as reduction in ERK phosphorylation preincubated for 1 hr by Western blot method; format: cell-based, MIA PaCa-2
# [30] = molecular target: Calcium/calmodulin-dependent protein kinase type II subunit delta (Homo sapiens) (UniProt Q13557); assay: Inhibition of partial length wild type human CAMK2delta expressed in bacterial system assessed as enzyme activity at 1 uM relative to control; design: scale not given: the % may be the effect or the level left
# [31] = molecular target: Bone morphogenetic protein receptor type-1A (Homo sapiens) (UniProt P36894); assay: Inhibition of partial length wild type human BMPR1A expressed in bacterial system assessed as enzyme activity at 1 uM relative to control; design: scale not given: the % may be the effect or the level left
# [32] = molecular target: Tyrosine-protein kinase Lyn (Homo sapiens) (UniProt P07948); assay: Inhibition of partial length wild type human LYN expressed in bacterial system assessed as enzyme activity at 1 uM relative to control; design: scale not given: the % may be the effect or the level left
# Tyrosine-protein kinase ABL1 (Homo sapiens), sequence (P00519 whole entry): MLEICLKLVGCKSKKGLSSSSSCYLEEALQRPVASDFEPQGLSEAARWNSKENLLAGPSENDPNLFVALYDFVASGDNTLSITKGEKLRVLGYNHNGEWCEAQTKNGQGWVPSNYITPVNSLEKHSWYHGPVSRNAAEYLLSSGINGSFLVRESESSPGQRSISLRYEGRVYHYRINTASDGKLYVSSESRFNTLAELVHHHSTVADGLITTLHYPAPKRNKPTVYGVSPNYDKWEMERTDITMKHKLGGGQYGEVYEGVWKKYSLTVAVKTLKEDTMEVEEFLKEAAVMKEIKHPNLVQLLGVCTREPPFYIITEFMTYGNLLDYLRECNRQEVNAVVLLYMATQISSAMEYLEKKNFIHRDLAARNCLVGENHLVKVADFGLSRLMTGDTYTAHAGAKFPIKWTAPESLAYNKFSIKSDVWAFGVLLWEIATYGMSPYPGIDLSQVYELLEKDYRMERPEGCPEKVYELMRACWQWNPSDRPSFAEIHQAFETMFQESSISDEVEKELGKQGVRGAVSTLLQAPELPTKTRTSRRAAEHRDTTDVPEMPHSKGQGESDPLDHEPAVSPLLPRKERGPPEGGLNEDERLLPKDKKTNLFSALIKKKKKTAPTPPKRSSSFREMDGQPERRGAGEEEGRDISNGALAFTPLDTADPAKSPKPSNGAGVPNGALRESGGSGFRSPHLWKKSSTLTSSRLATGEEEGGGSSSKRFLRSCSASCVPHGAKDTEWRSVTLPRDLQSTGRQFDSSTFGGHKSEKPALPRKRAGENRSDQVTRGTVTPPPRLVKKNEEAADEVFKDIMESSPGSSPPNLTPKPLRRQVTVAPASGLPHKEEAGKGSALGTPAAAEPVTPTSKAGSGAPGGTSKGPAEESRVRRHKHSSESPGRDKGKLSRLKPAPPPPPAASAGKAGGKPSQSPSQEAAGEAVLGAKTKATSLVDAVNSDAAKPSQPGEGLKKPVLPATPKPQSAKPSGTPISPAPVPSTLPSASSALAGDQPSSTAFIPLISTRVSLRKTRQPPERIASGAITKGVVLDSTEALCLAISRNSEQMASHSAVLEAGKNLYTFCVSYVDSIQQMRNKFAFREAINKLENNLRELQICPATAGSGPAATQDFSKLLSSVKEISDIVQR
# cGMP-dependent protein kinase 1 (Homo sapiens), sequence (Q13976 whole entry): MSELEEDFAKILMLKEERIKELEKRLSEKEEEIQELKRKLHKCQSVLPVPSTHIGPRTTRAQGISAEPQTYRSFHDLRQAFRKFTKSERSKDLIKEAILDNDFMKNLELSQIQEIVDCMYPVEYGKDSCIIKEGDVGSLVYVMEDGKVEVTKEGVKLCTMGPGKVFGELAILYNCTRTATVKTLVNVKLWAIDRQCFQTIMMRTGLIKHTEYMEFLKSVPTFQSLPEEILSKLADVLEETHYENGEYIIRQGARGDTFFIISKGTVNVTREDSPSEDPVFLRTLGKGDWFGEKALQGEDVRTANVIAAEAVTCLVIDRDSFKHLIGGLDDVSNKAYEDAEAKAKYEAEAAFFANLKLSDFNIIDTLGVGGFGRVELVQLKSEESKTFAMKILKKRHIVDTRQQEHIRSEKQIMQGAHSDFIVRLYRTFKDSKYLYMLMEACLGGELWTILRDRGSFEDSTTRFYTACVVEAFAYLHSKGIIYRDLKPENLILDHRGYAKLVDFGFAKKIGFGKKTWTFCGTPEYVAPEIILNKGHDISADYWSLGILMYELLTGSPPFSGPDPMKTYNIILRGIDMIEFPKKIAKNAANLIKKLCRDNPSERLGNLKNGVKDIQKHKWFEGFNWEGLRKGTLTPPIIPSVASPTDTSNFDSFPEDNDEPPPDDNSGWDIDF
# Serine/threonine-protein kinase/endoribonuclease IRE1 (Homo sapiens), sequence (O75460 19-977 limits assumed): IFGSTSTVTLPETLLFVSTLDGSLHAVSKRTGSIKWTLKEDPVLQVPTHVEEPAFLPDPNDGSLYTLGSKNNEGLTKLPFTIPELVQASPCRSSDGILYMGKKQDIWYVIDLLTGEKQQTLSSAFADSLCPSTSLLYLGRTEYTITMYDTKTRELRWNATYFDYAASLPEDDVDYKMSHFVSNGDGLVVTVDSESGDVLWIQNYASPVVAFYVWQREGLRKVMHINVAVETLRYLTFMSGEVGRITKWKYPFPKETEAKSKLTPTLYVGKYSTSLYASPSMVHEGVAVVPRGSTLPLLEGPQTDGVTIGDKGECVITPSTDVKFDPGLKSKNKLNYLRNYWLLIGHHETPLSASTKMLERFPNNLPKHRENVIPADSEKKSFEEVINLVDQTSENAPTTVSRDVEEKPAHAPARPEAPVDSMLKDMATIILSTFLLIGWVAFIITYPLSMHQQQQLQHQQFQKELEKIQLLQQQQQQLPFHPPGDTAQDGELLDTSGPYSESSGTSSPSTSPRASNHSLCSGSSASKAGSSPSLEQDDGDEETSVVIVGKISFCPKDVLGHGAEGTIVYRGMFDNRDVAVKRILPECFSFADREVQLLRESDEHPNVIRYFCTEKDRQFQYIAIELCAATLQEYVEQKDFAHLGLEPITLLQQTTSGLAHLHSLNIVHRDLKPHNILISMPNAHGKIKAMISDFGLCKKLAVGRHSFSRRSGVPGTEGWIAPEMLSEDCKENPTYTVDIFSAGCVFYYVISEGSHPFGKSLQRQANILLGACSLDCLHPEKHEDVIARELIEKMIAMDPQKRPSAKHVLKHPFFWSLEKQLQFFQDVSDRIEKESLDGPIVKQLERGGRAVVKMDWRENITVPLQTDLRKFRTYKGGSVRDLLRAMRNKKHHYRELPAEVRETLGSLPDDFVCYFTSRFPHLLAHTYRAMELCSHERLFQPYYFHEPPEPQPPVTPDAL
# Cyclin-dependent kinase 8 (Homo sapiens), sequence (P49336 whole entry): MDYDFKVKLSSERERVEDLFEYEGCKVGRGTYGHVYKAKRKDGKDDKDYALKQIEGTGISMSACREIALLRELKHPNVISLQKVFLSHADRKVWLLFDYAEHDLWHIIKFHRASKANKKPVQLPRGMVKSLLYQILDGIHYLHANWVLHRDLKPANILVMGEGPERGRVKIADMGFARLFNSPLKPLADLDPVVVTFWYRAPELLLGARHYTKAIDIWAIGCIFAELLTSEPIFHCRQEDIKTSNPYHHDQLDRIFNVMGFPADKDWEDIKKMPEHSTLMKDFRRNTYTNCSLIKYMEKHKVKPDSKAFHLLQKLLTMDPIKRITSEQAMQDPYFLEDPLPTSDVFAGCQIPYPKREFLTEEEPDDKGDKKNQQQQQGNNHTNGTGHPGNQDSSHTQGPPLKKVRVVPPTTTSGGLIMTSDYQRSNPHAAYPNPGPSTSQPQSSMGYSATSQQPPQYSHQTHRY
# Interferon-induced, double-stranded RNA-activated protein kinase (Homo sapiens), sequence (P19525 whole entry, the tested form may be a part): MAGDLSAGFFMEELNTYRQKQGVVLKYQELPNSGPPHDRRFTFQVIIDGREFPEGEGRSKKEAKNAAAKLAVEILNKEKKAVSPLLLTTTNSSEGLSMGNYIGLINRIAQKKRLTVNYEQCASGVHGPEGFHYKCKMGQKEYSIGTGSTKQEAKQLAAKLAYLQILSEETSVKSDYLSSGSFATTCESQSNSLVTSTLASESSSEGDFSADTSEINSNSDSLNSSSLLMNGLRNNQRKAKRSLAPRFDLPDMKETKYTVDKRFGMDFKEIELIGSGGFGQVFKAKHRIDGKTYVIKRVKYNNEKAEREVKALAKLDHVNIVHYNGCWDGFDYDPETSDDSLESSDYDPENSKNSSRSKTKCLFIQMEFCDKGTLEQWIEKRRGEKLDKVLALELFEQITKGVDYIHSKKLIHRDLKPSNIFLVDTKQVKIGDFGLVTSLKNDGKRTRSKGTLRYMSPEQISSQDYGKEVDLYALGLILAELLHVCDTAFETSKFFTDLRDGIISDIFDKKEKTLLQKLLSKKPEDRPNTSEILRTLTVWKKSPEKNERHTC
# Serine/threonine-protein kinase B-raf (Homo sapiens, UniProt P15056, V600E), sequence (P15056 2-766 V600E limits assumed): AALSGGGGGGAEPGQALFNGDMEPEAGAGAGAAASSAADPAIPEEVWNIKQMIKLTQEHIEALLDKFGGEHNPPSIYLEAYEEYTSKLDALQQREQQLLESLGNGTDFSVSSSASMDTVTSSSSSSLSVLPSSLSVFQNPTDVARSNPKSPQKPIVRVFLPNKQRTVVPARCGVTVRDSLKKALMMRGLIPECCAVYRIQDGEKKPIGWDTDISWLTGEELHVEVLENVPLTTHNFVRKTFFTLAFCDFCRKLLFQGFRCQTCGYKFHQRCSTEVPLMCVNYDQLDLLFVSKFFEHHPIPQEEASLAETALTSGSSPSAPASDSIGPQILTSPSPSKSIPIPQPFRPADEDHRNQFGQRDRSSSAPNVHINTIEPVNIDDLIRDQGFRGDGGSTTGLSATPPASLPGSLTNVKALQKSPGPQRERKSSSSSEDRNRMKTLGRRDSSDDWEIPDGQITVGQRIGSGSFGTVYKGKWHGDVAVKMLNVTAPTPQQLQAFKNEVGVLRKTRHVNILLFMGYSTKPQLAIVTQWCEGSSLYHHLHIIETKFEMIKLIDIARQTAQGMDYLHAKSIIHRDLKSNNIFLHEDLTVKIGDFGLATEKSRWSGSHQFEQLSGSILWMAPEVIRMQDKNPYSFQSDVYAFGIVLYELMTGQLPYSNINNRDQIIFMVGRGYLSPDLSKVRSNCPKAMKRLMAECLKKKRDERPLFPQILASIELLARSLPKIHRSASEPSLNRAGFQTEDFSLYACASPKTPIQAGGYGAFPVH
# Serine/threonine-protein kinase PAK 2 (Homo sapiens), sequence (Q13177 whole entry): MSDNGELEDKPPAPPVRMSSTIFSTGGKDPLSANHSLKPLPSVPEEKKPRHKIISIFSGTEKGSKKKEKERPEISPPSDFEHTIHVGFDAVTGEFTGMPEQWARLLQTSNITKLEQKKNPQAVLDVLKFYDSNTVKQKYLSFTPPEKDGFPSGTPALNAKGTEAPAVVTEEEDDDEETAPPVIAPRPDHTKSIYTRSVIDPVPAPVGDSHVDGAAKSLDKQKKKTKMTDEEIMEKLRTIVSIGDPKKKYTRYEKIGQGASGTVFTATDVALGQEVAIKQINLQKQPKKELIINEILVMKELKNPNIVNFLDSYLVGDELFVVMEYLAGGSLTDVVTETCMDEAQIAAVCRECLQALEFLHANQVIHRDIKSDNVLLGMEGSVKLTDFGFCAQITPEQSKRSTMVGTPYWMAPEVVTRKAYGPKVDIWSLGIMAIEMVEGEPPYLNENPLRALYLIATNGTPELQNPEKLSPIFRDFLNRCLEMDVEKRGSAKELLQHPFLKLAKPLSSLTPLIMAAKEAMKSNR
smiles,measurement,setting,value
CN(C)S(=O)(=O)Nc1ccc(F)c(Nc2ncccc2-c2ncnc3[nH]cnc23)c1F,Activity,[1],79%
same,Activity,[2],88%
same,Activity,[3],63%
same,Activity,[4],100%
same,Activity,[5],100%
same,Activity,[6],99%
same,Activity,[7],83%
same,Activity,[8],100%
same,IC50,[9],8 nM
same,Activity,[10],99%
same,Activity,[11],87%
same,Activity,[12],96%
same,Activity,[13],85%
same,Activity,[14],70%
same,Activity,[15],89%
same,Activity,[16],83%
same,Activity,[17],74%
same,Activity,[18],100%
same,Activity,[19],60%
same,Activity,[20],37%
same,Activity,[21],92%
same,Activity,[22],92%
same,Activity,[23],100%
same,Activity,[24],94%
same,Activity,[25],100%
same,Activity,[26],66%
same,Activity,[27],98%
same,Activity,[28],96%
same,EC50,[29],1780 nM
same,Activity,[30],83%
same,Activity,[31],63%
same,Activity,[32],93%
